Where “and” joins values, the source holds several entries; their conditions need not be identical. Equal entries are not always repeated. Toxic doses and inconclusive results are not listed. The calls were made as follows: active = survival T/C of 150% or more; inactive = T/C below 125% in these data.
Tested on: mice, LPC-1 plasma cell tumor ip, median survival T/C
Test: NCI In Vivo Anticancer Drug Screen. Data for tumor model Lieberman Plasma Cell No. 1 (LPC-1) (intraperitoneal) in unknown mice
Details: endpoint: median survival time, higher = longer survival
Method: The antitumor activity of compounds was measured in mice bearing transplantable tumors. Survival or tumor size were measured and the results are expressed as the measurement made in the treated group (T) divided by the measurement made in the vehicle treated control group (C). The tumor model used in this assay is Lieberman Plasma Cell No. 1 (LPC-1) (intraperitoneal) in unknown mice

Measured: T/C

COC1=C(N)C(=O)c2nc(-c3nc(C(=O)O)c(C)c(-c4ccc(OC)c(OC)c4O)c3N)ccc2C1=O
inactive: dose: 0.14 mg/kg/injection, schedule: Q01DX028 (sc), vehicle: other 100 % of control | dose: 0.23 mg/kg/injection, schedule: Q01DX028 (sc), vehicle: other 113 % of control | dose: 0.39 mg/kg/injection, schedule: Q01DX028 (sc), vehicle: other 115 % of control | dose: 0.65 mg/kg/injection, schedule: Q01DX028 (sc), vehicle: other 115 % of control | dose: 1.08 mg/kg/injection, schedule: Q01DX028 (sc), vehicle: other 94 % of control | dose: 1.8 mg/kg/injection, schedule: Q01DX028 (sc), vehicle: other 100 % of control

N[C@@H](Cc1ccc(N(CCCl)CCCl)cc1)C(=O)O
214 % of control and 117 % of control: dose: 3.75 mg/kg/injection, schedule: Q## X015 (oral), vehicle: carboxymethylcellulose (CMC)
inactive: dose: 0.57 mg/kg/injection, schedule: Q01DX024 (oral), vehicle: carboxymethylcellulose (CMC) 92 % of control | dose: 0.65 mg/kg/injection, schedule: Q## X024 (sc), vehicle: saline 96 % of control | dose: 1.07 mg/kg/injection, schedule: Q01DX028 (sc), vehicle: saline 107 % of control | dose: 1.08 mg/kg/injection, schedule: Q01DX008 (sc), vehicle: saline 96 % of control | dose: 1.08 mg/kg/injection, schedule: Q01DX009 (sc), vehicle: saline 103 % of control | dose: 1.08 mg/kg/injection, schedule: Q## X024 (sc), vehicle: saline 96 % of control | dose: 1.15 mg/kg/injection, schedule: Q01DX024 (oral), vehicle: carboxymethylcellulose (CMC) 100 % of control | dose: 1.8 mg/kg/injection, schedule: Q01DX008 (sc), vehicle: saline 100 % of control | dose: 1.8 mg/kg/injection, schedule: Q01DX009 (sc), vehicle: saline 103 % of control | dose: 1.8 mg/kg/injection, schedule: Q## X024 (sc), vehicle: saline 103 % of control | dose: 1.87 mg/kg/injection, schedule: Q01DX005 (oral), vehicle: carboxymethylcellulose (CMC) 88 % of control | dose: 1.9 mg/kg/injection, schedule: Q## X015 (ip), vehicle: saline 105 % of control | dose: 2.3 mg/kg/injection, schedule: Q01DX024 (oral), vehicle: carboxymethylcellulose (CMC) 91 % of control and 102 % of control | dose: 3.0 mg/kg/injection, schedule: Q01DX008 (sc), vehicle: saline 96 % of control | dose: 3.0 mg/kg/injection, schedule: Q01DX009 (sc), vehicle: saline 100 % of control | dose: 3.0 mg/kg/injection, schedule: Q04DX003 (sc), vehicle: saline 109 % of control | dose: 3.0 mg/kg/injection, schedule: Q## X024 (sc), vehicle: saline 96 % of control | dose: 3.75 mg/kg/injection, schedule: Q01DX005 (oral), vehicle: carboxymethylcellulose (CMC) 100 % of control and 104 % of control | dose: 3.75 mg/kg/injection, schedule: Q## X010 (oral), vehicle: carboxymethylcellulose (CMC) 95 % of control and 97 % of control | dose: 4.0 mg/kg/injection, schedule: Q01DX028 (sc), vehicle: methylcellulose (MC) 97 % of control | dose: 4.5 mg/kg/injection, schedule: Q01DX024 (oral), vehicle: carboxymethylcellulose (CMC) 88 % of control and 102 % of control | dose: 5.0 mg/kg/injection, schedule: Q01DX008 (sc), vehicle: saline 96 % of control | dose: 5.0 mg/kg/injection, schedule: Q01DX009 (sc), vehicle: saline 103 % of control | dose: 5.0 mg/kg/injection, schedule: Q01DX024 (ip), vehicle: saline 111 % of control | dose: 5.0 mg/kg/injection, schedule: Q01DX028 (sc), vehicle: saline 104 % of control and 105 % of control | dose: 5.0 mg/kg/injection, schedule: Q## X024 (sc), vehicle: saline 96 % of control | dose: 7.5 mg/kg/injection, schedule: Q01DX005 (oral), vehicle: carboxymethylcellulose (CMC) 94 % of control and 104 % of control | dose: 7.5 mg/kg/injection, schedule: Q## X010 (oral), vehicle: carboxymethylcellulose (CMC) 91 % of control and 95 % of control | dose: 7.5 mg/kg/injection, schedule: Q## X015 (ip), vehicle: saline 108 % of control | dose: 8.4 mg/kg/injection, schedule: Q01DX005 (sc), vehicle: saline 96 % of control | dose: 8.4 mg/kg/injection, schedule: Q01DX008 (sc), vehicle: saline 96 % of control | dose: 8.4 mg/kg/injection, schedule: Q01DX009 (sc), vehicle: saline 100 % of control | dose: 8.4 mg/kg/injection, schedule: Q01DX028 (sc), vehicle: saline 100 % of control | dose: 8.4 mg/kg/injection, schedule: Q04DX003 (sc), vehicle: saline 118 % of control | dose: 9.0 mg/kg/injection, schedule: Q01DX024 (oral), vehicle: carboxymethylcellulose (CMC) 88 % of control and 90 % of control | dose: 10.0 mg/kg/injection, schedule: Q01DX024 (ip), vehicle: saline 94 % of control | dose: 14.0 mg/kg/injection, schedule: Q04DX003 (sc), vehicle: saline 109 % of control | dose: 15.0 mg/kg/injection, schedule: Q01DX005 (ip), vehicle: saline 91 % of control | dose: 15.0 mg/kg/injection, schedule: Q## X010 (ip), vehicle: saline 88 % of control | dose: 15.0 mg/kg/injection, schedule: Q## X010 (oral), vehicle: carboxymethylcellulose (CMC) 97 % of control | dose: 15.0 mg/kg/injection, schedule: Q## X015 (ip), vehicle: saline 88 % of control | dose: 15.0 mg/kg/injection, schedule: Q## X015 (oral), vehicle: carboxymethylcellulose (CMC) 88 % of control and 90 % of control | dose: 18.0 mg/kg/injection, schedule: Q01DX001 (ip), vehicle: saline 123 % of control | dose: 19.0 mg/kg/injection, schedule: Q01DX001 (oral), vehicle: carboxymethylcellulose (CMC) 90 % of control | dose: 23.0 mg/kg/injection, schedule: Q04DX003 (sc), vehicle: saline 103 % of control | dose: 30.0 mg/kg/injection, schedule: Q01DX005 (oral), vehicle: carboxymethylcellulose (CMC) 88 % of control and 90 % of control | dose: 30.0 mg/kg/injection, schedule: Q## X015 (oral), vehicle: carboxymethylcellulose (CMC) 90 % of control | dose: 37.5 mg/kg/injection, schedule: Q01DX001 (ip), vehicle: saline 94 % of control | dose: 39.0 mg/kg/injection, schedule: Q01DX001 (sc), vehicle: saline 96 % of control | dose: 60.0 mg/kg/injection, schedule: Q01DX005 (oral), vehicle: carboxymethylcellulose (CMC) 88 % of control | dose: 65.0 mg/kg/injection, schedule: Q01DX001 (ip), vehicle: saline 88 % of control | dose: 65.0 mg/kg/injection, schedule: Q01DX001 (sc), vehicle: saline 96 % of control
active: dose: 0.64 mg/kg/injection, schedule: Q01DX028 (sc), vehicle: saline 170 % of control | dose: 1.7 mg/kg/injection, schedule: Q01DX028 (sc), vehicle: saline 182 % of control | dose: 1.8 mg/kg/injection, schedule: Q01DX005 (sc), vehicle: saline 381 % of control | dose: 1.87 mg/kg/injection, schedule: Q## X015 (oral), vehicle: carboxymethylcellulose (CMC) 190 % of control | dose: 1.9 mg/kg/injection, schedule: Q01DX005 (ip), vehicle: saline 161 % of control | dose: 2.9 mg/kg/injection, schedule: Q01DX028 (sc), vehicle: saline 155 % of control | dose: 3.0 mg/kg/injection, schedule: Q01DX028 (sc), vehicle: saline 164 % of control and 167 % of control and 152 % of control | dose: 3.8 mg/kg/injection, schedule: Q## X010 (ip), vehicle: saline 214 % of control | dose: 3.8 mg/kg/injection, schedule: Q## X015 (ip), vehicle: saline 202 % of control | dose: 5.0 mg/kg/injection, schedule: Q04DX003 (sc), vehicle: saline 166 % of control

COc1cc2oc(=O)ccc2cc1CC=C(C)C
inactive: dose: 25.0 mg/kg/injection, schedule: Q01DX028 (sc), vehicle: saline 100 % of control

Reference: PubChem BioAssay AID344 (DTP/NCI, 2004)
